Laboratory results as given in patent US7524847B2, “Fused 1,3-dihydro-imidazole ring compounds” (Eisai R&D Management Co., Ltd., priority 2002, dated 2009).
Where a name gives a salt, the structure may show the parent alone.

Target: T1, DPP-IV obtained from pig kidney (Sus scrofa, UniProt P22411)
T1 construct: DPP-IV obtained from pig kidney; from tissue; host or cells: pig kidney
Test: Measurement of DPPIV-inhibiting activity (in vitro experiment)
Type: biochemical
Conditions: DPP-IV from pig kidney 10 mU/mL, substrate Gly-Pro-p-nitroanilide 0.33 mM, 20 min preincubation, 20 min reaction, absorbance 405 nm
Description: DPP-IV obtained from pig kidney was dissolved in a reaction buffer (50 mM Tris-HCl pH7.4, 0.1% BSA) at 10 mU/mL, and 110 μL of this was used. 15 μL of the drug obtained from the aforementioned Examples was added, and this was incubated at room temperature for 20 minutes, and then 25 μL of a 2 mM solution of Gly-Pro-p-nitroanilide (final concentration 0.33 mM) was added to start the enzymatic reaction. The reaction time was 20 minutes, and 1 N phosphoric acid solution (25 μL) was added to stop the reaction.

T1 sequence (P22411 whole entry): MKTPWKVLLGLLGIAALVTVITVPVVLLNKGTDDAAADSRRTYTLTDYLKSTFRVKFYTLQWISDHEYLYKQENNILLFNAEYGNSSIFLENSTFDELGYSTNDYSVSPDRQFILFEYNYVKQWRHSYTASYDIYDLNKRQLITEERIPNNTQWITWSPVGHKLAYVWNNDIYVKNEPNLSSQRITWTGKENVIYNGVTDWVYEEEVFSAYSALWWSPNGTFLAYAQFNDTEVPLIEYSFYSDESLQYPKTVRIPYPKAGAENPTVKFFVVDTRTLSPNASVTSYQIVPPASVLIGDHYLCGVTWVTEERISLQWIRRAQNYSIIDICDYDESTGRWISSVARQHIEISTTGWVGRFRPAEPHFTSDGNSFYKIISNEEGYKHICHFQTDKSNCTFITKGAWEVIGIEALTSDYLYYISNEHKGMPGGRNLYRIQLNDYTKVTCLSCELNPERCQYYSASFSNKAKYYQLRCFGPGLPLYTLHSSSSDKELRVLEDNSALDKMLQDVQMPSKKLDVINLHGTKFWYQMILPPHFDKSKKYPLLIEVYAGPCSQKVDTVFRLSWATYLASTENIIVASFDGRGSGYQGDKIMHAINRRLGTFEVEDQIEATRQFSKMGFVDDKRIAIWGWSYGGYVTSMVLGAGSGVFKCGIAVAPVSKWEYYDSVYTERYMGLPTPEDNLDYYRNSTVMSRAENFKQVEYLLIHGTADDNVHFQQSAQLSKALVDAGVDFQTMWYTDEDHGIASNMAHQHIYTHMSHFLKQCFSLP

IC50 [µM]	SMILES
0.0864	CC#CCn1c(=O)n(C)c2nc(Cl)nc(N3CCNCC3)c21 [Example 2, 7-(2-Butynyl)-2-chloro-9-methyl-6-(piperazin-1-yl)-7,9-dihydropurin-8-one trifluoroacetic acid salt]
0.325	CC#CCn1c(=O)n(C)c2nc(N(CC)CC)nc(N3CCNCC3)c21 [Example 3, 7-(2-Butynyl)-2-diethylamino-9-methyl-6-(piperazin-1-yl)-7,9-dihydropurin-8-one trifluoroacetic acid salt]
0.334	CC#CCn1c(=O)n(C)c2nc(N(C)C)nc(N3CCNCC3)c21 [Example 4, 7-(2-Butynyl)-2-dimethylamino-9-methyl-6-(piperazin-1-yl)-7,9-dihydropurin-8-one trifluoroacetic acid salt]
0.172	CC#CCn1c(=O)n(C)c2nc(NC)nc(N3CCNCC3)c21 [Example 5, 7-(2-Butynyl)-9-methyl-2-methylamino-6-(piperazin-1-yl)-7,9-dihydropurin-8-one trifluoroacetic acid salt]
0.45	CC#CCn1c(=O)n(C)c2nc(N)nc(N3CCNCC3)c21 [Example 6, 2-Amino-7-(2-butynyl)-9-methyl-6-(piperazin-1-yl)-7,9-dihydropurin-8-one trifluoroacetic acid salt]
1.16	CC#CCn1c(=O)n(C)c2nc(O)nc(N3CCNCC3)c21 [Example 8, 7-(2-Butynyl)-2-hydroxy-9-methyl-6-(piperazin-1-yl)-7,9-dihydropurin-8-one trifluoroacetic acid salt]
0.214	CC#CCn1c(=O)n(C)c2nc(SC)nc(N3CCNCC3)c21 [Example 9, 7-(2-Butynyl)-2-methylsulfanyl-9-methyl-6-(piperazin-1-yl)-7,9-dihydropurin-8-one trifluoroacetic acid salt]
0.179	CC#CCn1c(=O)n(C)c2nc(OCc3ccccc3)nc(N3CCNCC3)c21 [Example 11, 2-Benzyloxy-7-(2-butynyl)-9-methyl-6-(piperazin-1-yl)-7,9-dihydropurin-8-one trifluoroacetic acid salt]
0.0474	CC#CCn1c(=O)n(C)c2nc(Oc3ccccc3)nc(N3CCNCC3)c21 [Example 12, 7-(2-Butynyl)-9-methyl-2-phenoxy-6-(piperazin-1-yl)-7,9-dihydropurin-8-one trifluoroacetic acid salt]
0.124	CC#CCn1c(=O)n(C)c2nc(Oc3ccccc3C(N)=O)nc(N3CCNCC3)c21 [Example 14, 2-[7-(2-Butynyl)-9-methyl-8-oxo-6-(piperazin-1-yl)-8,9-dihydro-7H-purin-2-yloxy]benzamide trifluoroacetic acid salt]
0.364	CC#CCOc1nc(N2CCNCC2)c2c(n1)n(C)c(=O)n2CC#CC [Example 16, 7-(2-Butynyl)-2-(2-butynyloxy)-9-methyl-6-(piperazin-1-yl)-7,9-dihydropurin-8-one trifluoroacetic acid salt]
0.263	CC#CCn1c(=O)n(C)c2nc(NCc3ccccc3)nc(N3CCNCC3)c21 [Example 17, 2-Benzylamino-7-(2-butynyl)-9-methyl-6-(piperazin-1-yl)-7,9-dihydropurin-8-one trifluoroacetic acid salt]
0.972	CCC#CCn1c(=O)n(C)c2nc(Cl)nc(N3CCNCC3)c21 [Example 18, 2-Chloro-9-methyl-7-(2-pentynyl)-6-(piperazin-1-yl)-7,9-dihydropurin-8-one trifluoroacetic acid salt]
5.41	CC(C)=CCn1c(=O)n(C)c2nc(Cl)nc(N3CCNCC3)c21 [Example 19, 2-Chloro-9-methyl-7-(3-methyl-2-butenyl)-6-(piperazin-1-yl)-7,9-dihydropurin-8-one trifluoroacetic acid salt]
0.642	CC=CCn1c(=O)n(C)c2nc(Cl)nc(N3CCNCC3)c21 [Example 20, 7-(2-Butenyl)-2-chloro-9-methyl-6-(piperazin-1-yl)-7,9-dihydropurin-8-one trifluoroacetic acid salt]
2.45	Cn1c(=O)n(Cc2ccccc2)c2c(N3CCNCC3)nc(Cl)nc21 [Example 21, 7-Benzyl-2-chloro-9-methyl-6-(piperazin-1-yl)-7,9-dihydropurin-8-one trifluoroacetic acid salt]
3.14	CC#CCn1c(=O)n(C)c2nc(Cl)nc(N3CCCC(N)C3)c21 (centres unmarked) [Example 27, 6-(3-Amino-piperidin-1-yl)-7-(2-butynyl)-2-chloro-9-methyl-7,9-dihydropurin-8-one trifluoroacetic acid salt]
89.5	CC#CCn1c(=O)n(C)c2nc(Cl)nc(N3CCCC(NC)C3)c21 (centres unmarked) [Example 28, 7-(2-Butynyl)-2-chloro-9-methyl-6-(3-methylamino-piperidin-1-yl)-7,9-dihydropurin-8-one trifluoroacetic acid salt]

IC50 [µM]	SMILES
0.00292	CC#CCn1c(=O)n(Cc2ccccc2C#N)c2nc(Cl)nc(N3CCNCC3)c21 [Example 29, 2-[7-(2-Butynyl)-2-chloro-8-oxo-6-(piperazin-1-yl)-7,8-dihydropurin-9-ylmethyl]benzonitrile trifluoroacetic acid salt]
0.132	CC#CCn1c(=O)n(CCC)c2nc(Cl)nc(N3CCNCC3)c21 [Example 30, 7-(2-Butynyl)-2-chloro-6-(piperazin-1-yl)-9-propyl-7,9-dihydropurin-8-one trifluoroacetic acid salt]
0.259	CC#CCn1c(=O)n(CC(=O)O)c2nc(Cl)nc(N3CCNCC3)c21 [Example 31, [7-(2-Butynyl)-2-chloro-8-oxo-6-(piperazin-1-yl)-7,8-dihydropurin-9-yl]acetic acid trifluoroacetic acid salt]
0.212	CC#CCn1c(=O)n(CC#N)c2nc(Cl)nc(N3CCNCC3)c21 [Example 32, [7-(2-Butynyl)-2-chloro-8-oxo-6-(piperazin-1-yl)-7,8-dihydropurin-9-yl]acetonitrile trifluoroacetic acid salt]
0.163	CC#CCn1c(=O)n(CC(N)=O)c2nc(Cl)nc(N3CCNCC3)c21 [Example 33, 2-[7-(2-Butynyl)-2-chloro-8-oxo-6-(piperazin-1-yl)-7,8-dihydropurin-9-yl]acetamide trifluoroacetic acid salt]
0.0148	CC#CCn1c(=O)n(CCc2ccccc2)c2nc(Cl)nc(N3CCNCC3)c21 [Example 34, 7-(2-Butynyl)-2-chloro-9-(2-phenylethyl)-6-(piperazin-1-yl)-7,9-dihydropurin-8-one trifluoroacetic acid salt]
0.0266	CC#CCn1c(=O)n(CCc2ccc(Br)cc2)c2nc(Cl)nc(N3CCNCC3)c21 [Example 35, 9-[2-(4-Bromophenyl)-ethyl]-7-(2-butynyl)-2-chloro-6-(piperazin-1-yl)-7,9-dihydropurin-8-one trifluoroacetic acid salt]
0.0807	CC#CCn1c(=O)n(Cc2ccccc2)c2nc(Cl)nc(N3CCNCC3)c21 [Example 36, 9-Benzyl-7-(2-butynyl)-2-chloro-6-(piperazin-1-yl)-7,9-dihydropurin-8-one trifluoroacetic acid salt]
0.149	CC#CCn1c(=O)n(CCCC#N)c2nc(Cl)nc(N3CCNCC3)c21 [Example 37, 4-[7-(2-Butynyl)-2-chloro-8-oxo-6-(piperazin-1-yl)-7,8-dihydropurin-9-yl]butyronitrile trifluoroacetic acid]
0.15	CC#CCn1c(=O)n(CC2CC2)c2nc(Cl)nc(N3CCNCC3)c21 [Example 38, 7-(2-Butynyl)-2-chloro-9-cyclopropylmethyl-6-(piperazin-1-yl)-7,9-dihydropurin-8-one trifluoroacetic acid salt]
0.0323	CC#CCn1c(=O)n(Cc2ccccc2C(N)=O)c2nc(Cl)nc(N3CCNCC3)c21 [Example 39, 2-[7-(2-Butynyl)-2-chloro-8-oxo-6-(piperazin-1-yl)-7,8-dihydropurin-9-ylmethyl]benzamide trifluoroacetic acid salt]
0.0896	CC#CCn1c(=O)n(CC(=O)OC)c2nc(Cl)nc(N3CCNCC3)c21 [Example 40, [7-(2-Butynyl)-2-chloro-8-oxo-6-(piperazin-1-yl)-7,8-dihydropurin-9-yl]acetic acid methyl ester trifluoroacetic acid salt]
0.0917	CC#CCn1c(=O)n(-c2ccccc2)c2nc(Cl)nc(N3CCNCC3)c21 [Example 41, 7-(2-Butynyl)-2-chloro-9-phenyl-6-(piperazin-1-yl)-7,9-dihydropurin-8-one trifluoroacetic acid salt]
0.0425	CC#CCn1c(=O)n(-c2ccc(C#N)cc2)c2nc(Cl)nc(N3CCNCC3)c21 [Example 42, 4-[7-(2-Butynyl)-2-chloro-8-oxo-6-(piperazin-1-yl)-7,8-dihydropurin-9-yl]benzonitrile trifluoroacetic acid salt]
0.0678	CC#CCn1c(=O)n(-c2ccc(OC)cc2)c2nc(Cl)nc(N3CCNCC3)c21 [Example 43, 7-(2-Butynyl)-2-chloro-9-(4-methoxyphenyl)-6-(piperazin-1-yl)-7,9-dihydropurin-8-one trifluoroacetic acid salt]
0.132	CC#CCn1c(=O)n(-c2ccoc2)c2nc(Cl)nc(N3CCNCC3)c21 [Example 44, 7-(2-Butynyl)-2-chloro-9-(furan-3-yl)-6-(piperazin-1-yl)-7,9-dihydropurin-8-one trifluoroacetic acid salt]
0.13	CC#CCn1c(=O)n(-c2ccsc2)c2nc(Cl)nc(N3CCNCC3)c21 [Example 45, 7-(2-Butynyl)-2-chloro-6-(piperazin-1-yl)-9-(thiophen-3-yl)-7,9-dihydropurin-8-one trifluoroacetic acid salt]
